Experimental data reported in publication PMC9161259 (ACS Omega, 2022).

How the values were obtained:
L858R/T790M mutant EGFR = L858R/T790M mutant EGFR (Homo sapiens, UniProt P00533, L858R/T790M); assay: ADP-Glo kinase assay, L858R/T790M mutant EGFR; format: biochemical
wild-type EGFR = wild-type EGFR (Homo sapiens, UniProt P00533); assay: ADP-Glo kinase assay, wild-type EGFR; format: biochemical
[1] = test system: MOLT-3 lymphoblastic leukemia cell line; assay: Cytotoxic assay; details: for IC50: Homo sapiens, MOLT-3, 48 h, read-out: Cytotoxic activity IC50, MOLT-3
[2] = test system: T47D hormone-dependent breast cancer cell line; assay: Cytotoxic assay; details: Homo sapiens, 48 h, read-out: Cytotoxic activity IC50, T47D
[3] = test system: HepG2 hepatocellular carcinoma cell line; assay: Cytotoxic assay; details: for IC50: Homo sapiens, HepG2, 48 h, read-out: Cytotoxic activity IC50, HepG2
Cytotoxic assay = details: human, MRC-5 normal embryonic lung cell line
[4] = test system: A549 lung carcinoma cell line; assay: Cytotoxic assay; details: Homo sapiens, A549, 48 h, read-out: Cytotoxic activity IC50, A549
[5] = test system: HuCCA-1 cholangiocarcinoma cancer cell line; assay: Cytotoxic assay; details: Homo sapiens, HuCC-A1, 48 h, read-out: Cytotoxic activity IC50, HuCCA-1
[6] = test system: MDA-MB-231 hormone-independent breast cancer cell line; assay: Cytotoxic assay; details: Homo sapiens, MDA-MB-231, 48 h, read-out: Cytotoxic activity IC50, MDA-MB-231

Sequence of wild-type EGFR (P00533 25-1210): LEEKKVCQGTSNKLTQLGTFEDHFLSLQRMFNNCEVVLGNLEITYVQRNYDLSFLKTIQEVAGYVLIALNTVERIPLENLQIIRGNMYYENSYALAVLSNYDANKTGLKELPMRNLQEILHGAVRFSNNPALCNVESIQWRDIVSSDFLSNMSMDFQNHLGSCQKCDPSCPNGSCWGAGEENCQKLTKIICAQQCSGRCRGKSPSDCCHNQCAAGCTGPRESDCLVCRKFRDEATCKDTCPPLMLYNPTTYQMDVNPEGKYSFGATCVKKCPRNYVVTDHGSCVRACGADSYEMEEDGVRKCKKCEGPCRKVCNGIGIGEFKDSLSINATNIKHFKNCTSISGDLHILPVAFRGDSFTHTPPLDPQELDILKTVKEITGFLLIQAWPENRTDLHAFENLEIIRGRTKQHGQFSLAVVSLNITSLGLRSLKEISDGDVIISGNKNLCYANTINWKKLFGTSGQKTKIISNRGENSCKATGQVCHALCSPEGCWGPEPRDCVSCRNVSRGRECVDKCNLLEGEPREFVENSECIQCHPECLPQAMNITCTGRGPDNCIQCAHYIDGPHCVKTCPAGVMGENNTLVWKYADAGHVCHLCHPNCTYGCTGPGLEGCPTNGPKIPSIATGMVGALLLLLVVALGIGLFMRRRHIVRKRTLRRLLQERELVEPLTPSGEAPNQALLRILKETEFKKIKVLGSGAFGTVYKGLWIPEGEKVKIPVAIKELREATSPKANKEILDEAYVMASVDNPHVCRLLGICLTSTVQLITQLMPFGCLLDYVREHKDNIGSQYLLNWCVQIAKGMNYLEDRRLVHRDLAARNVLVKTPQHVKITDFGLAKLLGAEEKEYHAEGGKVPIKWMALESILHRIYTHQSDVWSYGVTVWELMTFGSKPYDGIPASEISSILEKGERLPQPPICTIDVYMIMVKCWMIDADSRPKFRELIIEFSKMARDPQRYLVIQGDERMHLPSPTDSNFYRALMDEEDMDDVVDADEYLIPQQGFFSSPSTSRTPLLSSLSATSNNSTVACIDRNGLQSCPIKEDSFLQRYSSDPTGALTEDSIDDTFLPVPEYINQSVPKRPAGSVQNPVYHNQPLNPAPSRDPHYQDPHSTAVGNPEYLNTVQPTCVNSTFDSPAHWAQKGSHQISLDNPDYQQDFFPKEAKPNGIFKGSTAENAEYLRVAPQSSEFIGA
Sequence of L858R/T790M mutant EGFR (P00533 25-1210 T790M/L858R): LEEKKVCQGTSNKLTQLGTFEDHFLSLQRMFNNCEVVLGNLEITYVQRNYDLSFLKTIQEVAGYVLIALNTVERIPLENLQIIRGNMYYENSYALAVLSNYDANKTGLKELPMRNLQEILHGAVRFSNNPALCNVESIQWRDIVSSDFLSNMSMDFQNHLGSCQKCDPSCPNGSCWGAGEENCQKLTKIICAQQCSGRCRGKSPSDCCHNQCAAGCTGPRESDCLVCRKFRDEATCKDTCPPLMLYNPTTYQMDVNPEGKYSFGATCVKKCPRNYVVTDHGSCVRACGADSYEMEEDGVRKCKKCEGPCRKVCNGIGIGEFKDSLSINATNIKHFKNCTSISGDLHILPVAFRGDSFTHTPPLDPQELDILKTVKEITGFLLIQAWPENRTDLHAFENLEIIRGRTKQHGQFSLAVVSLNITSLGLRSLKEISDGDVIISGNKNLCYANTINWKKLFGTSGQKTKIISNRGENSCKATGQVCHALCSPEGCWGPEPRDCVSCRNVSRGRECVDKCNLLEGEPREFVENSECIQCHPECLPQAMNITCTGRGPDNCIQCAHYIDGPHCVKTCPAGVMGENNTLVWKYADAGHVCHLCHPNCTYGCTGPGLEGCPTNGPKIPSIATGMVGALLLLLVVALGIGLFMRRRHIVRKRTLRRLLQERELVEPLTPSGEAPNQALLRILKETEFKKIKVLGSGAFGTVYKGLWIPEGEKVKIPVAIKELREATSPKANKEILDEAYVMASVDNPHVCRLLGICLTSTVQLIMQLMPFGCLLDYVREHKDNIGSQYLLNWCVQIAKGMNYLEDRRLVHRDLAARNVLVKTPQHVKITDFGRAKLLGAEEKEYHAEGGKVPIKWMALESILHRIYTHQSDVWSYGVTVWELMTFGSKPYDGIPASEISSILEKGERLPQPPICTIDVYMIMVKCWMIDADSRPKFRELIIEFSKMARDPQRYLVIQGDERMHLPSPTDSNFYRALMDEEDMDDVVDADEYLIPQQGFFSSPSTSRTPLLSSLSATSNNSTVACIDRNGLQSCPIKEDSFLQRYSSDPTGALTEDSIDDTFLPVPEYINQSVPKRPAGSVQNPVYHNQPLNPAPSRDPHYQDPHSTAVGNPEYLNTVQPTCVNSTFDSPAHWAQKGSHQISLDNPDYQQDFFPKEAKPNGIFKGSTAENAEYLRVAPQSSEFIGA

With Cc1ccc(NC2=C(Cl)C(=O)c3ccccc3C2=O)cc1 [compound 3, 2-Chloro-3-(p-tolylamino)naphthalene-1,4-dione] the IC50 (L858R/T790M mutant EGFR) was > 0.1 µM, the IC50 (wild-type EGFR) was 0.00396 ± 0.00066 µM and the “EGFR inhibitory activity, times higher than that of erlotinib” value (wild-type EGFR; ratio of IC50 values, wild-type EGFR) was 4 fold. It also gave an IC50 [1] of 4.3 ± 0.46 µM, an IC50 [2] of 39.5 ± 0.3 µM and an IC50 [3] of 127.4 ± 0.65 µM. For the same compound, the IC50 at 48 h (Cytotoxic assay) was 92.43 ± 0.02 µM, the IC50 [4] was > 50 µg/mL and the IC50 [5] was 42.2 ± 1.96 µM. For the same compound, the IC50 [6] was 10.7 ± 1.89 µM.

O=C1C(Cl)=C(Nc2ccc(F)cc2)C(=O)c2ccccc21 [compound 4, 2-Chloro-3-((4-fluorophenyl)amino)naphthalene-1,4-dione] showed an IC50 [1] of 7.45 ± 1.06 µM, an IC50 [2] of 17.9 ± 0.76 µM and an IC50 [3] of 131.9 ± 1.13 µM. It also gave an IC50 at 48 h (Cytotoxic assay) of 20.2 ± 1.4 µM, an IC50 [4] of 148 ± 2.55 µM and an IC50 [5] of 58.7 ± 0.64 µM. The IC50 [6] was 17 ± 0.2 µM.

In the case of O=C1C(Cl)=C(Nc2ccc(Br)cc2)C(=O)c2ccccc21 [compound 5, 2-((4-Bromophenyl)amino)-3-chloronaphthalene-1,4-dione], the “Cytotoxic activity IC50, MOLT-3” value [1] is reported as “inactive”, the IC50 [1] is reported as > 50 µg/mL and the IC50 [2] is reported as > 50 µg/mL. The “Cytotoxic activity IC50, HepG2” value [3] was “inactive”, the IC50 [3] was > 50 µg/mL and the IC50 at 48 h (Cytotoxic assay) was > 50 µg/mL. For the same compound, the IC50 [4] was > 50 µg/mL, the IC50 [5] was > 50 µg/mL and the IC50 [6] was > 50 µg/mL.

For O=C1C(Cl)=C(Nc2ccc(I)cc2)C(=O)c2ccccc21 [compound 6, 2-Chloro-3-((4-iodophenyl)amino)naphthalene-1,4-dione], the IC50 [1] was 42.6 ± 8.11 µM, the IC50 [2] was 52.5 ± 0.85 µM and the IC50 [3] was > 50 µg/mL. For the same compound, the IC50 at 48 h (Cytotoxic assay) was > 50 µg/mL, the IC50 [4] was > 50 µg/mL and the IC50 [5] was > 50 µg/mL. The IC50 [6] was > 50 µg/mL.

With O=C1C(Cl)=C(Nc2ccc(C(F)(F)F)cc2)C(=O)c2ccccc21 [compound 7, 2-Chloro-3-((4-(trifluoromethyl)phenyl)amino)naphthalene-1,4-dione] the IC50 [1] was 7.68 ± 0.84 µM, the IC50 [2] was 63.4 ± 2.12 µM and the IC50 [3] was > 50 µg/mL. For the same compound, the IC50 at 48 h (Cytotoxic assay) was > 50 µg/mL, the IC50 [4] was > 50 µg/mL and the IC50 [5] was > 50 µg/mL. For the same compound, the IC50 [6] was 70.8 ± 2.19 µM.

In the case of O=C1C(Cl)=C(Nc2ccc([N+](=O)[O-])cc2)C(=O)c2ccccc21 [compound 8, 2-Chloro-3-((4-nitrophenyl)amino)naphthalene-1,4-dione], the IC50 (L858R/T790M mutant EGFR) is reported as > 0.1 µM, the IC50 (wild-type EGFR) is reported as 0.0114 ± 0.00035 µM and the IC50 [1] is reported as 1.98 ± 0.28 µM. The IC50 [2] was 11.7 ± 0.19 µM, the IC50 [3] was 86.1 ± 1.61 µM and the IC50 at 48 h (Cytotoxic assay) was 74.9 ± 7.21 µM. The IC50 [4] was 70 ± 2.04 µM, the IC50 [5] was 16.3 ± 0.98 µM and the IC50 [6] was 11.1 ± 2.84 µM.

N#Cc1ccc(NC2=C(Cl)C(=O)c3ccccc3C2=O)cc1 [compound 9, 4-((3-Chloro-1,4-dioxo-1,4-dihydronaphthalen-2-yl)amino)benzonitrile] showed an IC50 [1] of 1.75 ± 0.2 µM, an IC50 [2] of 11.27 ± 0.06 µM and an IC50 [3] of 73.4 ± 2.26 µM. For the same compound, the IC50 at 48 h (Cytotoxic assay) was 18.4 ± 1.65 µM, the IC50 [4] was 72.72 ± 0.21 µM and the IC50 [5] was 22.67 ± 0.09 µM. For the same compound, the IC50 [6] was 43.08 ± 0.19 µM.

For O=C1C(Cl)=C(Nc2cccc([N+](=O)[O-])c2)C(=O)c2ccccc21 [compound 10, 2-Chloro-3-((3-nitrophenyl)amino)naphthalene-1,4-dione], the IC50 (L858R/T790M mutant EGFR) was > 0.1 µM, the IC50 (wild-type EGFR) was 0.0186 ± 0.00141 µM and the IC50 [1] was 2.98 ± 0.25 µM. The IC50 [2] was 19.2 ± 1.77 µM, the IC50 [3] was > 50 µg/mL and the IC50 at 48 h (Cytotoxic assay) was 74.53 ± 0.71 µM. For the same compound, the IC50 [4] was 114.1 ± 0.71 µM, the IC50 [5] was 42.1 ± 0.74 µM and the IC50 [6] was 16.2 ± 0.57 µM.

For COc1ccc(NC2=C(Cl)C(=O)c3ccccc3C2=O)cc1 [compound 11, 2-Chloro-3-((4-methoxyphenyl)amino)naphthalene-1,4-dione], the IC50 [1] was 17.6 ± 3.3 µM, the IC50 [2] was > 50 µg/mL and the IC50 [3] was > 50 µg/mL. The IC50 at 48 h (Cytotoxic assay) was > 50 µg/mL, the IC50 [4] was > 50 µg/mL and the IC50 [5] was > 50 µg/mL. The IC50 [6] was 105 ± 2.72 µM.

In the case of O=C1C(Cl)=C(Nc2ccc(O)cc2)C(=O)c2ccccc21 [compound 12, 2-Chloro-3-((4-hydroxyphenyl)amino)naphthalene-1,4-dione], the IC50 [1] is reported as 4.67 ± 0.24 µM, the IC50 [2] is reported as 14.7 ± 0.43 µM and the IC50 [3] is reported as 22.6 ± 0.87 µM. For the same compound, the IC50 at 48 h (Cytotoxic assay) was 11.4 ± 3.28 µM, the IC50 [4] was 30.73 ± 0.18 µM and the IC50 [5] was 8.21 ± 0.33 µM. The IC50 [6] was 4.77 ± 0.07 µM.

Work on O=C1C(Br)=C(Nc2ccccc2)C(=O)c2ccccc21 [compound 13, 2-Bromo-3-(phenylamino)naphthalene-1,4-dione] yielded an IC50 [1] of 2.74 ± 0.02 µM, an IC50 [2] of 10.1 ± 0.27 µM and an IC50 [3] of 20.1 ± 0.54 µM. The IC50 at 48 h (Cytotoxic assay) was 15.3 ± 2.67 µM, the IC50 [4] was 27.91 ± 0.05 µM and the IC50 [5] was 15.6 ± 0.54 µM. The IC50 [6] was 9.48 ± 2.17 µM.

In the case of O=C1C(Br)=C(Nc2ccc(F)cc2)C(=O)c2ccccc21 [compound 14, 2-Bromo-3-((4-fluorophenyl)amino)naphthalene-1,4-dione], the IC50 [1] is reported as 4.65 ± 0.41 µM, the IC50 [2] is reported as 28.5 ± 1 µM and the IC50 [3] is reported as 19.1 ± 0.82 µM. It also gave an IC50 at 48 h (Cytotoxic assay) of 12.5 ± 0.74 µM, an IC50 [4] of 50 ± 3 µM and an IC50 [5] of 16.2 ± 1.65 µM. For the same compound, the IC50 [6] was 7.54 ± 2.07 µM.

For O=C1C(Br)=C(Nc2ccc(Br)cc2)C(=O)c2ccccc21 [compound 15, 2-Bromo-3-((4-bromophenyl)amino)naphthalene-1,4-dione], the IC50 [1] was 7.17 ± 1.12 µM, the IC50 [2] was > 50 µg/mL and the IC50 [3] was 4.94 ± 0.02 µM. The IC50 at 48 h (Cytotoxic assay) was > 50 µg/mL, the IC50 [4] was > 50 µg/mL and the IC50 [5] was 70.2 ± 1.12 µM. It also gave an IC50 [6] of 65.5 ± 3.01 µM.

With O=C1C=C(Nc2ccccc2)C(=O)c2ccccc21 [compound 16, 2-(Phenylamino)naphthalene-1,4-dione] the IC50 [1] was > 50 µg/mL, the IC50 [2] was > 50 µg/mL and the IC50 [3] was 25.1 ± 3.31 µM. For the same compound, the IC50 at 48 h (Cytotoxic assay) was > 50 µg/mL, the IC50 [4] was 40.8 ± 1.51 µM and the IC50 [5] was 96.2 ± 2.84 µM. The IC50 [6] was 30.4 ± 0.86 µM.

In the case of O=C1C=C(Nc2ccc(F)cc2)C(=O)c2ccccc21 [compound 17, 2-((4-Fluorophenyl)amino)naphthalene-1,4-dione], the IC50 [1] is reported as > 50 µg/mL, the IC50 [2] is reported as 88.7 ± 1.64 µM and the IC50 [3] is reported as 23.4 ± 3.45 µM. For the same compound, the IC50 at 48 h (Cytotoxic assay) was 21.6 ± 2.45 µM, the IC50 [4] was > 50 µg/mL and the IC50 [5] was 9.65 ± 1.99 µM. For the same compound, the IC50 [6] was 21.8 ± 2.95 µM.

For COc1ccc(NC2=CC(=O)c3ccccc3C2=O)cc1 [compound 18, 2-((4-Methoxyphenyl)amino)naphthalene-1,4-dione], the IC50 [1] was > 50 µg/mL, the IC50 [2] was > 50 µg/mL and the IC50 [3] was > 50 µg/mL. For the same compound, the IC50 at 48 h (Cytotoxic assay) was > 50 µg/mL, the IC50 [4] was > 50 µg/mL and the IC50 [5] was > 50 µg/mL. The IC50 [6] was > 50 µg/mL.

COc1cccc2c1C(=O)c1c(O)c3c(c(O)c1C2=O)C[C@@](O)(C(=O)CO)C[C@@H]3O[C@H]1C[C@H](N)[C@H](O)[C@H](C)O1 [doxorubicin, reference compound] showed an IC50 [1] of 0.02 µM, an IC50 [2] of 1.04 ± 0.01 µM and an IC50 [3] of 0.5 ± 0.04 µM. It also gave an IC50 at 48 h (Cytotoxic assay) of 2.67 ± 0.2 µM, an IC50 [4] of 0.34 ± 0.01 µM and an IC50 [5] of 1.17 ± 0.05 µM. The IC50 [6] was 2.1 ± 0.06 µM.

COc1cc([C@@H]2c3cc4c(cc3[C@@H](O[C@@H]3O[C@@H]5CO[C@@H](C)O[C@H]5[C@H](O)[C@H]3O)[C@H]3COC(=O)[C@H]23)OCO4)cc(OC)c1O [etoposide, reference compound] gave an IC50 [1] of 0.05 µM and an IC50 [3] of 50 ± 3.7 µM.
